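These data come from cells grown in 96-well plates and exposed to compound for 48 hours at five concentrations. GI50 is the concentration that inhibits growth by half.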 Active and inactive are the calls of the source. Rule as the data show it: active = GI50 up to about 1.1 µM and inactive = higher.
Key:
Test in all cases: NCI-60 cell line screen, 48 h
[1] = tested on: CAKI-1
[2] = tested on: HCC 2998
[3] = tested on: HCT-116
[4] = tested on: HL-60
[5] = tested on: HOP-62
[6] = tested on: HOP-92
[7] = tested on: HT-29
[8] = tested on: IGROV-1
[9] = tested on: KM12
[10] = tested on: LOX IMVI
[11] = tested on: MDA-MB-231
[12] = tested on: MDA-MB-435
[13] = tested on: NCI-H460
[14] = tested on: NCI/ADR-RES
[15] = tested on: OVCAR-3
[16] = tested on: OVCAR-8
[17] = tested on: SK-MEL-2
[18] = tested on: SN12C
[19] = tested on: T47D
[20] = tested on: TK-10

| SMILES | GI50 [1] | GI50 [2] | GI50 [3] | GI50 [4] | GI50 [5] | GI50 [6] | GI50 [7] | GI50 [8] | GI50 [9] | GI50 [10] | GI50 [11] | GI50 [12] | GI50 [13] | GI50 [14] | GI50 [15] | GI50 [16] | GI50 [17] | GI50 [18] | GI50 [19] | GI50 [20] |
| --- | --- | --- | --- | --- | --- | --- | --- | --- | --- | --- | --- | --- | --- | --- | --- | --- | --- | --- | --- | --- |
| CC(C)(C)C(=O)C(C(=O)c1ccccc1)C(=O)C(C)(C)C | > 100 µM (inactive) | > 100 µM (inactive) | 56.1 µM (inactive) | > 100 µM (inactive) | > 100 µM (inactive) | > 100 µM (inactive) | > 100 µM (inactive) | > 100 µM (inactive) | > 100 µM (inactive) | > 100 µM (inactive) | 98.2 µM (inactive) | > 100 µM (inactive) | > 100 µM (inactive) | 30.5 µM (inactive) | > 100 µM (inactive) | 48.5 µM (inactive) | > 100 µM (inactive) | > 100 µM (inactive) | > 100 µM (inactive) | > 100 µM (inactive) |
| C=C(C)C(=O)OC1CC2(C)OC(=CC2=O)C(C)CC2OC(=O)C(=C)C12 (stereo not given) | 2.7 µM (inactive) | 10.3 µM (inactive) | 1.75 µM (inactive) | 0.461 µM (active) | 19.2 µM (inactive) | 5.56 µM (inactive) | 3.92 µM (inactive) | 8.85 µM (inactive) | 19.8 µM (inactive) | 2.94 µM (inactive) | 13.5 µM (inactive) | 4.13 µM (inactive) | 11.9 µM (inactive) | 8.95 µM (inactive) | 5.15 µM (inactive) | 8.41 µM (inactive) | 14.3 µM (inactive) | 5.85 µM (inactive) | 4.57 µM (inactive) | 7.41 µM (inactive) |
| CC(=O)OCC1OC(N2C(=O)/C(=C\c3ccc(Cl)cc3)C(N)=Nc3ccccc32)C(OC(C)=O)C(OC(C)=O)C1OC(C)=O (stereo not given) | 37.3 µM (inactive) | 16.1 µM (inactive) | 16.6 µM (inactive) | 33 µM (inactive) | 29.2 µM (inactive) | 17.2 µM (inactive) | 25.7 µM (inactive) | 19.6 µM (inactive) | 14.9 µM (inactive) | 17.1 µM (inactive) | 19.3 µM (inactive) | 16 µM (inactive) | 28.4 µM (inactive) | 51.1 µM (inactive) | 15.4 µM (inactive) | 13.8 µM (inactive) | 25.4 µM (inactive) | 29.2 µM (inactive) | 12.4 µM (inactive) | 28.1 µM (inactive) |
| O=C(CC(=O)Nc1cccc(C(=O)O)c1)Nc1cccc(C(=O)O)c1 | > 100 µM (inactive) | > 100 µM (inactive) | > 100 µM (inactive) | > 100 µM (inactive) | > 100 µM (inactive) | > 100 µM (inactive) | > 100 µM (inactive) | > 100 µM (inactive) | > 100 µM (inactive) | > 100 µM (inactive) | > 100 µM (inactive) | > 100 µM (inactive) | > 100 µM (inactive) | > 100 µM (inactive) | > 100 µM (inactive) | > 100 µM (inactive) | > 100 µM (inactive) | > 100 µM (inactive) | > 100 µM (inactive) | > 100 µM (inactive) |
| COc1ccc2c(c1)OC(c1cccnc1)C(c1ccccc1)C2=O (stereo not given) | > 100 µM (inactive) | > 100 µM (inactive) | 97.5 µM (inactive) | > 100 µM (inactive) | 25.9 µM (inactive) | 49.5 µM (inactive) | > 100 µM (inactive) | > 100 µM (inactive) | > 100 µM (inactive) | > 100 µM (inactive) | > 100 µM (inactive) | > 100 µM (inactive) | > 100 µM (inactive) | > 100 µM (inactive) | > 100 µM (inactive) | 80.2 µM (inactive) | > 100 µM (inactive) | > 100 µM (inactive) | > 100 µM (inactive) | > 100 µM (inactive) |
| COc1ccc(Cc2cc(OC)c(OC)c(OC)c2)cc1 | 0.254 µM (active) | 0.226 µM (active) | 0.207 µM (active) | 0.0586 µM (active) | 0.411 µM (active) | 0.805 µM (active) | 0.124 µM (active) | 0.863 µM (active) | 0.144 µM (active) | 0.393 µM (active) | 0.711 µM (active) | 0.0236 µM (active) | 0.286 µM (active) | 0.146 µM (active) | 0.151 µM (active) | 0.504 µM (active) | 0.218 µM (active) | 0.671 µM (active) | 30.8 µM (inactive) | 6.79 µM (inactive) |
| Cc1ccc2c(O)cc(-c3cccs3)nc2n1 | 15.4 µM (inactive) | 12.9 µM (inactive) | 4.81 µM (inactive) | 2.7 µM (inactive) | 37.9 µM (inactive) | 57 µM (inactive) | 16.2 µM (inactive) | 4.86 µM (inactive) | 2.76 µM (inactive) | 11.4 µM (inactive) | > 72.6 µM (inactive) | 1.58 µM (inactive) | 5.08 µM (inactive) | 2.9 µM (inactive) | 14.3 µM (inactive) | 18.2 µM (inactive) | > 25.9 µM (inactive) | 19.1 µM (inactive) | 6.64 µM (inactive) | > 100 µM (inactive) |

From ChEMBL document CHEMBL1201862, “PubChem BioAssay data set” (2004)
